# Assay results: patent US20250296971A1, “GASTRIC INHIBITORY PEPTIDE RECEPTOR LIGANDS” (priority 2021, published 2025)
# *1 amine or outer side, *2 acyl side, *3 side chain or, on linkers, in order; H or OH if unused. Where a SMILES comes first, the peptide text is derived from it. Bridges are numbered along the chain shown (N, C = ends). [ ]: non-standard residue; d: D form. The star is where a group is joined. ξ: configuration not given here. X5 = NC(=O)[C@H](CCCCNC(=O)CN1CCN(CC(=O)O)CCN(CC(=O)O)CCN(CC(=O)O)CC1)NC(=O)CCC(=O)NCCCOCCOCCOCCCN*; X3 = O=C(O)CN1CCN(CC(=O)O)CCN(CC(=O)NCCCOCCOCCOCCCN*)CCN(CC(=O)O)CC1; Trp(5-Cl) = N[C@@H](Cc1c[nH]c2ccc(Cl)cc12)C(=O)O; Trp(5-OH) = N[C@@H](Cc1c[nH]c2ccc(O)cc12)C(=O)O; Trp(7-aza) = N[C@@H](Cc1c[nH]c2ncccc12)C(=O)O; 1Nal = N[C@@H](Cc1cccc2ccccc12)C(=O)O; mXylylene = c1cc(C[*:1])cc(C[*:2])c1; oXylylene = c1ccc(C[*:2])c(C[*:1])c1; X6 = c1cc(CSCCN[*:2])nc(C[*:1])c1; X7 = c1cc(CSCCN[*:2])cc(C[*:1])c1; Cya = N[C@@H](CS(=O)(=O)O)C(=O)O; Hyp = O=C(O)[C@@H]1C[C@@H](O)CN1; Suc = O=C(CCC(=O)[*:2])[*:1]; hLeu = CC(C)CC[C@H](N)C(=O)O; Aib = CC(C)(N)C(=O)O; ξP = O=C(O)C1CCCN1
# Target: T1, GIPR (CHO-K1-hGIPR cells) (Homo sapiens, UniProt P48546)
# T1 construct: host or cells: CHO-K1
# T1 sequence (P48546 22-466): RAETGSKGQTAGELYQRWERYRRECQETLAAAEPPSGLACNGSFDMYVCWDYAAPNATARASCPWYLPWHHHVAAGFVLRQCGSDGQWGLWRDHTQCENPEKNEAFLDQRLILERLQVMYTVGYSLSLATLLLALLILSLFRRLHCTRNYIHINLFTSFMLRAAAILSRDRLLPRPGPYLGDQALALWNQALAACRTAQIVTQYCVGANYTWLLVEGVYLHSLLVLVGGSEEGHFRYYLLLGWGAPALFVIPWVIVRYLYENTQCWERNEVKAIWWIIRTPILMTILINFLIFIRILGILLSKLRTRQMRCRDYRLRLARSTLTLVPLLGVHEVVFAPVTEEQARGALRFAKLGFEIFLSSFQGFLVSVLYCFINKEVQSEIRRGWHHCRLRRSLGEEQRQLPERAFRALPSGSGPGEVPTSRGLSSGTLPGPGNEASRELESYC
# Experiment: FACS binding assay
# Conditions: competition with 20 nM GIP-057, 4° C. for 1 hour, read-out: pIC50 Category (converted)
# Summary of the method: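 Read-out: flow cytometric median fluorescence intensity, APC/Cy5 channel, plotted vs peptide conc.; 4PL fit → EC50/pEC50 or IC50/pIC50. Cells: CHO-K1-hGIPR, Accutase-detached, 500.000/mL in PBS + 1% FCS. Detection: APC-streptavidin 1 μg/mL, 30 min, on ice.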
row,Compound,IC50
1,"CC[C@H](C)[C@@H]1NC(=O)[C@H](CC(C)C)NC(=O)C(C)(C)NC(=O)[C@@H](NC(=O)[C@@H](CC(C)C)NC(=O)[C@H](CCC(=O)O)NC(=O)[C@@H]2CCCN2C(=O)[C@H](Cc2c[nH]c3ccc(O)cc23)NC(=O)[C@H](Cc2c[nH]c3ccccc23)NC(=O)[C@H](CC(=O)O)NC(C)=O)CSCc2cccc(c2)CSC[C@@H](C(=O)NCCCOCCOCCOCCCNC(=O)CCC(=O)N[C@@H](CCCCNC(=O)CN2CCN(CC(=O)O)CCN(CC(=O)O)CCN(CC(=O)O)CC2)C(N)=O)NC1=O [GIP-302, Ac-Asp-Trp-Hyw-Pro-Glu-leu-[Cys(3MeBn)-Aib-Leu-Ile-Cys]-Ttds-Lys(DOTA)-NH2] (Ac-DW[Trp(5-OH)]PE[dL]C[Aib]LIC-X5; linker 7-11 via mXylylene)",> 1000 nM
2,"CC[C@H](C)[C@@H]1NC(=O)[C@H](CC(C)C)NC(=O)C(C)(C)NC(=O)[C@@H](NC(=O)[C@@H](CC(C)C)NC(=O)[C@H](CCC(=O)O)NC(=O)[C@@H]2CCCN2C(=O)[C@H](Cc2cccc3ccccc23)NC(=O)[C@H](Cc2c[nH]c3ncccc23)NC(=O)[C@H](CC(=O)O)NC(C)=O)CSCc2cccc(c2)CSC[C@@H](C(=O)NCCCOCCOCCOCCCNC(=O)CCC(=O)N[C@@H](CCCCNC(=O)CN2CCN(CC(=O)O)CCN(CC(=O)O)CCN(CC(=O)O)CC2)C(N)=O)NC1=O [GIP-303, Ac-Asp-7Nw-1Ni-Pro-Glu-leu-[Cys(3MeBn)-Aib-Leu-Ile-Cys]-Ttds-Lys(DOTA)-NH2] (Ac-D[Trp(7-aza)][1Nal]PE[dL]C[Aib]LIC-X5; linker 7-11 via mXylylene)",> 1000 nM
3,"CC[C@H](C)[C@@H]1NC(=O)[C@H](CC(C)C)NC(=O)[C@@H](NC(=O)[C@H](CCC(=O)O)NC(=O)[C@@H](CC(C)C)NC(=O)[C@H](Cc2c[nH]c3ccc(Cl)cc23)NC(=O)[C@@H]2CCCN2C(=O)[C@H](CC(=O)O)NC(=O)[C@H](Cc2c[nH]c3ccccc23)NC(=O)CCC(=O)NCCCOCCOCCOCCCNC(=O)CN2CCN(CC(=O)O)CCN(CC(=O)O)CCN(CC(=O)O)CC2)CSCc2cccc(c2)CSCCNC(=O)C(C)(C)NC1=O [GIP-304, DOTA-Ttds-Trp-Asp-Pro-5Clw-leu-Glu-[Cys(3MeBn)-Leu-Ile-Aib-AET]] ({X3-Suc}-WDP[Trp(5-Cl)][dL]ECLI[Aib]; linker 7-C via X7)",> 1000 nM
4,"CC[C@H](C)[C@@H]1NC(=O)C(C)(C)NC(=O)[C@H](CCC(=O)O)NC(=O)[C@@H](NC(=O)[C@H](CC(C)C)NC(=O)[C@H](Cc2c[nH]c3ccccc23)NC(=O)[C@H](Cc2c[nH]c3ccc(Cl)cc23)NC(=O)[C@@H]2CCCN2C(=O)[C@H](CC(=O)O)NC(=O)[C@@H](CC(C)C)NC(=O)CCC(=O)NCCCOCCOCCOCCCNC(=O)CN2CCN(CC(=O)O)CCN(CC(=O)O)CCN(CC(=O)O)CC2)CSCc2cccc(c2)CSCCNC1=O [GIP-305, DOTA-Ttds-leu-Asp-Pro-5Clw-Trp-Leu-[Cys(3MeBn)-Glu-Aib-Ile-AET]] ({X3-Suc}-[dL]DP[Trp(5-Cl)]WLCE[Aib]I; linker 7-C via X7)",> 1000 nM
5,CC[C@H](C)[C@@H]1NC(=O)[C@H](CC(C)C)NC(=O)[C@H](C)NC(=O)[C@@H](NC(=O)[C@H](CC(C)C)NC(=O)[C@H](CCC(=O)O)NC(=O)[C@H](C)NC(=O)[C@H](Cc2c[nH]c3ccccc23)NC(=O)[C@H](Cc2c[nH]c3ccccc23)NC(=O)[C@H](CC(=O)O)NC(=O)[C@H](Cc2ccc(O)cc2)NC(=O)[C@@H](N)CCSC)CSCc2cccc(c2)CSC[C@@H](C(N)=O)NC1=O [GIP-311] (H-MYDWWAELCALIC-NH2; linker 9-13 via mXylylene),100 to 794 nM
6,CC[C@H](C)[C@@H]1NC(=O)[C@H](C)NC(=O)[C@H](C)NC(=O)[C@@H](NC(=O)[C@H](CC(C)C)NC(=O)[C@H](CCC(=O)O)NC(=O)[C@@H]2CCCN2C(=O)[C@H](Cc2c[nH]c3ccccc23)NC(=O)[C@H](Cc2c[nH]c3ccccc23)NC(=O)[C@H](CC(=O)O)NC(=O)[C@H](Cc2ccc(O)cc2)NC(=O)[C@@H](N)CCSC)CSCc2cccc(c2)CSC[C@@H](C(N)=O)NC1=O [GIP-312] (H-MYDWWPELCAAIC-NH2; linker 9-13 via mXylylene),100 to 794 nM
7,CC[C@H](C)[C@@H]1NC(=O)[C@@H](CC(C)C)NC(=O)[C@H](C)NC(=O)[C@@H](NC(=O)[C@H](CC(C)C)NC(=O)[C@H](CCC(=O)O)NC(=O)[C@@H]2CCCN2C(=O)[C@H](Cc2c[nH]c3ccccc23)NC(=O)[C@H](Cc2c[nH]c3ccccc23)NC(=O)[C@H](CC(=O)O)NC(=O)[C@H](Cc2ccc(O)cc2)NC(=O)[C@@H](N)CCSC)CSCc2ccccc2CSC[C@@H](C(N)=O)NC1=O [GIP-313] (H-MYDWWPELCA[dL]IC-NH2; linker 9-13 via oXylylene),100 to 794 nM
8,"CC[C@H](C)[C@@H]1NC(=O)[C@H](CC(C)C)NC(=O)[C@@H](C)NC(=O)[C@@H](NC(=O)[C@H](CC(C)C)NC(=O)[C@H](CCC(=O)O)NC(=O)[C@@H]2CCCN2C(=O)[C@H](Cc2c[nH]c3ccccc23)NC(=O)[C@H](Cc2c[nH]c3ccccc23)NC(=O)CCC(=O)O)CSCc2cccc(c2)CSC[C@@H](C(N)=O)NC1=O [GIP-314, HO-Succinyl-Trp-Trp-Pro-Glu-Leu-[Cys(3MeBn)-ala-Leu-Ile-Cys]-NH2] (Suc-WWPELC[dA]LIC-NH2; linker 6-10 via mXylylene)",100 to 794 nM
9,"CC[C@H](C)[C@@H]1NC(=O)[C@H](CC(C)C)NC(=O)C(C)(C)NC(=O)[C@@H](NC(=O)[C@@H](CC(C)C)NC(=O)[C@H](CCC(=O)O)NC(=O)[C@@H]2C[C@@H](O)CN2C(=O)[C@H](Cc2c[nH]c3ccc(Cl)cc23)NC(=O)CNC(=O)[C@H](CS(=O)(=O)O)NC(C)=O)CSCc2cccc(n2)CSCCNC1=O [GIP-316, Ac-Cya-Gly-5Clw-Hyp-Glu-leu-[Cys(2Lut)-Aib-Leu-Ile-AET]] (Ac-[Cya]G[Trp(5-Cl)][Hyp]E[dL]C[Aib]LI; linker 7-C via X6)",100 to 794 nM

# The next lines start with the values.
row,IC50,Compound
1,> 1000 nM,"CC[C@H](C)[C@@H]1NC(=O)[C@@H](NC(=O)[C@H](Cc2c[nH]c3ccccc23)NC(=O)[C@H](CC(=O)O)NC(=O)[C@@H](CC(C)C)NC(=O)[C@H](CCC(=O)O)NC(=O)C2CCCN2C(=O)[C@H](Cc2c[nH]c3ccc(Cl)cc23)NC(=O)CCC(=O)NCCCOCCOCCOCCCNC(=O)CN2CCN(CC(=O)O)CCN(CC(=O)O)CCN(CC(=O)O)CC2)CSCc2cccc(c2)CSCCNC(=O)C(C)(C)NC(=O)[C@H](CC(C)C)NC1=O (stereo partly drawn) [GIP-306, DOTA-Ttds-5Clw-Pro-Glu-leu-Asp-Trp-[Cys(3MeBn)-Ile-Leu-Aib-AET]] ({X3-Suc}-[Trp(5-Cl)][ξP]E[dL]DWCIL[Aib]; linker 7-C via X7)"
2,100 to 794 nM,"CC[C@H](C)[C@@H]1NC(=O)[C@H](CC(C)C)NC(=O)[C@H](C)NC(=O)[C@@H](NC(=O)[C@H](CC(C)C)NC(=O)[C@H](CCC(=O)O)NC(=O)[C@@H]2CCCN2C(=O)[C@H](Cc2c[nH]c3ccccc23)NC(=O)[C@H](Cc2c[nH]c3ccccc23)NC(=O)[C@@H](CC(=O)O)NC(=O)[C@H](Cc2ccc(O)cc2)NC(=O)[C@@H](N)CCSC)CSCc2cccc(c2)CSC[C@@H](C(N)=O)NC1=O [GIP-307, H-Met-Tyr-asp-Trp-Trp-Pro-Glu-Leu-[Cys(3MeBn)-Ala-Leu-Ile-Cys]-NH2] (H-MY[dD]WWPELCALIC-NH2; linker 9-13 via mXylylene)"
3,100 to 794 nM,"CC[C@H](C)[C@@H]1NC(=O)[C@H](CC(C)C)NC(=O)[C@H](C)NC(=O)[C@@H](NC(=O)[C@H](CC(C)C)NC(=O)[C@H](CCC(=O)O)NC(=O)[C@@H]2CCCN2C(=O)[C@H](Cc2c[nH]c3ccccc23)NC(=O)[C@@H](Cc2c[nH]c3ccccc23)NC(=O)[C@H](CC(=O)O)NC(=O)[C@H](Cc2ccc(O)cc2)NC(=O)[C@@H](N)CCSC)CSCc2cccc(c2)CSC[C@@H](C(N)=O)NC1=O [GIP-308, H-Met-Tyr-Asp-trp-Trp-Pro-Glu-Leu-[Cys(3MeBn)-Ala-Leu-Ile-Cys]-NH2] (H-MYD[dW]WPELCALIC-NH2; linker 9-13 via mXylylene)"
4,100 to 794 nM,CC[C@H](C)[C@@H]1NC(=O)[C@H](CC(C)C)NC(=O)[C@H](C)NC(=O)[C@H](NC(=O)[C@H](CC(C)C)NC(=O)[C@H](CCC(=O)O)NC(=O)[C@@H]2CCCN2C(=O)[C@H](Cc2c[nH]c3ccccc23)NC(=O)[C@H](Cc2c[nH]c3ccccc23)NC(=O)[C@H](CC(=O)O)NC(=O)[C@H](Cc2ccc(O)cc2)NC(=O)[C@@H](N)CCSC)CSCc2cccc(c2)CSC[C@@H](C(N)=O)NC1=O [GIP-309] (H-MYDWWPEL[dC]ALIC-NH2; linker 9-13 via mXylylene)
5,100 to 794 nM,CC[C@H](C)[C@@H]1NC(=O)[C@H](CC(C)C)NC(=O)[C@H](C)NC(=O)[C@@H](NC(=O)[C@H](CC(C)C)NC(=O)[C@H](CCC(=O)O)NC(=O)[C@@H]2CCCN2C(=O)[C@H](Cc2c[nH]c3ccccc23)NC(=O)[C@H](Cc2c[nH]c3ccccc23)NC(=O)[C@H](CC(=O)O)NC(=O)[C@H](Cc2ccc(O)cc2)NC(=O)[C@@H](N)CCSC)CSCc2cccc(c2)CSC[C@H](C(N)=O)NC1=O [GIP-310] (H-MYDWWPELCALI[dC]-NH2; linker 9-13 via mXylylene)
6,100 to 794 nM,"CC[C@H](C)[C@@H]1NC(=O)[C@H](CC(C)C)NC(=O)C(C)(C)NC(=O)[C@@H](NC(=O)[C@H](CCC(C)C)NC(=O)[C@H](CCC(=O)O)NC(=O)[C@@H]2CCCN2C(=O)[C@H](Cc2cccc3ccccc23)NC(=O)[C@H](Cc2c[nH]c3ccccc23)NC(=O)[C@H](CC(=O)O)NC(C)=O)CSCc2cccc(c2)CSC[C@@H](C(N)=O)NC1=O [GIP-315, Ac-Asp-Trp-1Ni-Pro-Glu-Hle-[Cys(3MeBn)-Aib-Leu-Ile-Cys]-NH2] (Ac-DW[1Nal]PE[hLeu]C[Aib]LIC-NH2; linker 7-11 via mXylylene)"
